Data reported in patent US20240229098A1, “BIOLUMINOGENIC ASSAY FOR DRUG-RESISTANCE BACTERIA DETECTION” (priority 2021, published 2024).

Legend:
TEM-1 [1] = target: T1, TEM-1 (Escherichia coli, UniProt P62593); settings: D-luciferin 10 μM, TEM-1 10, 20, 50, 100 nM, 15 min, PBS pH 7.4
Method: (§3) Bioluminescent signal was measured after the addition of bioluminescent reagent. Statistical significance was calculated using the unpaired two-tailed Student's t test (** p<0.01, **** p<0.0001).
(§4) The study was duplicated at room temperature with PBS (pH=7.4). Statistical significance was calculated using the unpaired two-tailed Student's t test (ns: not significant). The study was duplicated at room temperature with PBS (pH=7.4) as the buffer. Data were collected on a SpectraMax iD3 multimode microplate reader.

IMP-1 = IMP-1 (Serratia marcescens, UniProt P52699); settings: D-luciferin 10 μM, IMP-1 10, 20, 50, 100 nM, 15 min, PBS pH 7.4
Method: as §3, §4

firefly luciferase = target: T2, firefly luciferase (Photinus pyralis, UniProt P08659); assay: Background bioluminescence and oxidation of pro-luciferin probes on repeated addition of firefly luciferase; format: biochemical; settings: for bioluminescence emission on additional batches of firefly luciferase: repeated firefly luciferase addition, no β-lactamase
T2 construct: purchased Promega E1701
Method: The initial bioluminescent background signal may come from residual D-luciferin present in the sample. High-performance liquid chromatography (HPLC) analysis could not detect any D-luciferin at a concentration below 0.1 μM. However, addition of firefly luciferase can efficiently detect and consume the residual free D-luciferin.
To further confirm the quenching effect of dabcyl in D-Bluco, another control, Am-Bluco, was prepared that is structurally similar to D-Bluco but with dabcyl replaced by a structure lacking the broad absorption between 400 and 530 nm (FIG. 1).

TEM-1 [2] = target: T1, TEM-1; format: biochemical; parameters: made in house; settings: 10 μM probe, TEM-1 20 nM, 15 min, PBS pH 7.4, r.t.
Method: RLU indicates relative light units.
(§1) FIGS. 9A and 9B illustrates bioluminescent studies of D-Bluco and O-Bluco treating with various β-lactamases. 10 μM of Bluco, D-Bluco and O-Bluco incubated with 20 nM TEM-1 for 15 min in PBS at r.t. The bioluminescent signals for each compound was evaluated with or without the addition of TEM-1 by a luminator. […] The relative bioluminescent was calculated by removing background signal in PBS.
The bioluminescence emission from the released D-luciferin was measured. […] Also evaluated was whether there was interference between luciferase and β-lactamases in such dual enzyme reaction system.
The signal to background ratio for D-Bluco, O-Bluco, and Bluco was measured following the addition of the firefly luciferase (fLuc).
(§2) The caged luciferin probes were incubated with different concentrations of TEM-1 β-lactamase or IMP-1 carbapenemase (0.001-0.1 fmol) in PBS (pH=7.4) for 2 hr at 25° C. Then a mixture of luciferase (200 nM), ATP (2 mM), and MgCl2 (4 mM) was added, and bioluminescent signals were detected with a SpectraMax microplate reader or a luminator.

[3] = system: KPC-3, BlaC, TEM-1, IMP-1, AmpC, OXA-48; assay: Bioluminescence with panel of recombinant β-lactamases of clinical relevance; format: biochemical
Method: as §1
Having confirmed the quenching ability of dabcyl to lower D-Bluco bioluminescent background emission, the activity of D-Bluco towards a variety of β-lactamases that are of clinical relevance in addition to TEM-1, including KPC-3, BlaC (Class A), AmpC (Class C), and OXA-48 (Class D) was then assessed. These enzymes were recombinantly expressed and purified. The bioluminescent signal was measured with an IVIS optical imaging system after treating D-Bluco with each enzyme for 2 hours at room temperature.
D-Bluco and O-Bluco were evaluated with various β-lactamase that of clinical relevance (FIG. 9B and 9C), including KPC-3, BlaC, TEM-1 (Class A), IMP-1 (Class B), AmpC (Class C), and OXA-48 (Class D). These enzymes were recombinantly expressed, purified as previously described^25. The bioluminescent signal was measured after incubating O-Bluco or D-Bluco with each enzyme at different concentrations for 2 hr at r.t. […] This compares favorably to previously reported fluorescent cephalosporin probe with a 1000-fold sensitivity improvement.^26
as §2

TEM-1 [4] = target: T1, TEM-1; assay: Fluorescence turn-on of caged luciferin probes with recombinant TEM-1 bla; format: biochemical; parameters: made in house
Method: D-Bluco was evaluated as to whether it could be processed by β-lactamase to release luciferin with one of the most prevalent Ambler class A β-lactamases, TEM-1.
Both probes were evaluated to with TEM-1 bla, one of the most abundant β-Lactamases for initial testing. The fluorescent signal of D-Bluco and O-Bluco incubated with 100 nM TEM-1 bla was examined with a microplate reader over a period of 40 minutes.
General information: All chemicals were purchased from commercial sources and used without further purification. […] QuantiLum Recombinant luciferase (catalog number E1701) was purchased from Promega (Madison, WI). Reaction progress was monitored by analytical thin layer chromatography (TLC) with 0.25 mm silica gel 60F plates and visualized with fluorescent indicator (254 nm). Flash column chromatography was conducted using silica gel (SiliaFlash for flash column, 40-63 μm, 60 Å). The ^1H and ^13C NMR spectra were acquired on a Varian 500 MHz or 600 MHz magnetic resonance spectrometer. Data for ^1H NMR spectra are reported as follows: chemical shifts are reported as δ in units of parts per million (ppm) relative to chloroform-d (δ 7.26, s); multiplicities are reported as follows: s (singlet), d (doublet), t (triplet), q (quartet), dd (doublet of doublets), m (multiplet), or br (broadened); coupling constants are reported as a J value in Hertz (Hz); and the number of protons (n) for a given resonance is indicated nH and based on the spectral integration values. High resolution mass spectra were obtained on a Thermo Exactive Orbitrap LC/MS. HPLC was performed on a Dionex HPLC System (Dionex Corporation) equipped with a GP50 gradient pump and an inline diode array UV-Vis detector. A reversed-phase C18 (Phenomenax, 5 μm, 10×250 mm or Dionex, 5 μm, 4.6×250 mm) column was used with a MeCN (B)/H2O (A) gradient mobile phase containing 0.1% trifluoroacetic acid at a flow of 1 or 3 mL/min for the analysis. Fluorescence Spectra and kinetic experiments were collected by a SpectraMax iD3 multimode microplate reader (Molecular Device, San Jose, CA).

T2 sequence (P08659 whole entry): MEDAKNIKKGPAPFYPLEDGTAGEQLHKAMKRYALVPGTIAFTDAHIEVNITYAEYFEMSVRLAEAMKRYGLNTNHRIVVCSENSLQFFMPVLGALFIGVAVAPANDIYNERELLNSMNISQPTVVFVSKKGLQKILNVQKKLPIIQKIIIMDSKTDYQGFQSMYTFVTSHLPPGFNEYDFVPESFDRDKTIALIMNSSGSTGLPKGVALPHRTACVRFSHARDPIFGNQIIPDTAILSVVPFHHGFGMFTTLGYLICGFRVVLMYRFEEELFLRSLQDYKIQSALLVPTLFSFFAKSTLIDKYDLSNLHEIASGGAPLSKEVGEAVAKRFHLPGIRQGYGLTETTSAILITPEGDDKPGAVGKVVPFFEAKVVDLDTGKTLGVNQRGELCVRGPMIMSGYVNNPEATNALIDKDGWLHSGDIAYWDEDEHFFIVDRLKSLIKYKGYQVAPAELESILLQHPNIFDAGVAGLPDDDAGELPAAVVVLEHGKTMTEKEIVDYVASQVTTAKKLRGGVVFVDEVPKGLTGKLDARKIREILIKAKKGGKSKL
T1 sequence (P62593 24-286 limits assumed): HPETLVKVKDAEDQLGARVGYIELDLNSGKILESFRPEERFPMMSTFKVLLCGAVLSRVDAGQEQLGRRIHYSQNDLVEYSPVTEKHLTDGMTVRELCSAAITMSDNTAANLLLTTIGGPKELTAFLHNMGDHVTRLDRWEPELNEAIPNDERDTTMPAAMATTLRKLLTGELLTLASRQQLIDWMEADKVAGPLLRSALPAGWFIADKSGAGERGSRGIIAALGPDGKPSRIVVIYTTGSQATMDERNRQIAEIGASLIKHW
Chain of IMP-1 (P52699 19-246): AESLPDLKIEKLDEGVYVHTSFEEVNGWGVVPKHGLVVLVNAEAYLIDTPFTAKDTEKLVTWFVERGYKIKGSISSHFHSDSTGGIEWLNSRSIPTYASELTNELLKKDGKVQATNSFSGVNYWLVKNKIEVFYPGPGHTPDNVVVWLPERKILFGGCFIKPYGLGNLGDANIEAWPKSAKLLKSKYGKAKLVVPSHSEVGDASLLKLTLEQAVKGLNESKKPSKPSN

SMILES: O=C(O)[C@H]1CSC(c2nc3ccc(O)cc3s2)=N1 [D-luciferin]
- difference in bioluminescent signal of D-luciferin with or without TEM-1 (TEM-1 [1]): No significant differences
- difference in bioluminescent signal of D-luciferin with or without IMP-1 (IMP-1): No significant differences

SMILES: O=C(CCCCCNC(=O)c1ccc(NC(=O)c2ccccc2)cc1)NC1C(=O)N2C(C(=O)O)=C(COc3ccc4nc(C5=NC(C(=O)O)CS5)sc4c3)C[S+]([O-])C12 (stereo not shown) [Am-Bluco, 7-(6-(4-benzamidobenzamido)hexanamido)-3-(((2-(4-carboxy-4,5-dihydrothiazol-2-yl)benzo[d]thiazol-6-yl)oxy)methyl)-8-oxo-5-thia-1-azabicyclo[4.2.0]oct-2-ene-2-carboxylic acid 5-oxide]
- oxidation of probe incubated with firefly luciferase (mass spectrometry) (firefly luciferase): oxidized
- bioluminescence emission on additional batches of firefly luciferase (firefly luciferase): produced bioluminescence emission upon each addition of firefly luciferase

SMILES: O=C(Cc1ccccc1)NC1C(=O)N2C(C(=O)O)=C(COc3ccc(COc4ccc5nc(C6=N[C@@H](C(=O)O)CS6)sc5c4)cc3)C3(CC3)SC12 (stereo partly drawn) [O-Bluco, 4-((4-(((2-((S)-4-carboxy-4,5-dihydrothiazol-2-yl)benzo[d]thiazol-6-yl)oxy)methyl)phenoxy)methyl)-7-oxo-8-(2-phenylacetamido)-2-thia-6-azaspiro[bicyclo[4.2.0]octane-3,1′-cyclopropan]-4-ene-5-carboxylic acid]
- fold increase in bioluminescence emission upon TEM-1 treatment (turn-on ratio, signal with TEM-1 over signal without TEM-1) (TEM-1 [2]): 100.5 fold
- sensitivity improvement over previously reported fluorescent cephalosporin probes [3]: 1000 fold
- detection limits for the panel of enzymes ([3]; KPC-3, BlaC, TEM-1, IMP-1, AmpC, OXA-48, 2 hr at r.t.): within the femtomole range
- fold increase in fluorescence emission in the presence of TEM-1 (TEM-1 [4]; 1 μM probe, TEM-1 100 nM, 40 min, PBS pH 7.4, r.t., excitation 330 nm, emission 530 nm): 32.7 fold
- course of fluorescence signal with TEM-1 bla (TEM-1 [4]; TEM-1 bla 100 nM, monitored over 40 minutes): gradual increase of signal

SMILES: O=C(Cc1ccccc1)NC1C(=O)N2C(C(=O)O)=C(COc3ccc4nc(C5=N[C@H](C(=O)O)CS5)sc4c3)C[S+]([O-])C12 (stereo partly shown) [Bluco, reference compound]
- fold increase in bioluminescence emission upon TEM-1 treatment (turn-on ratio, signal with TEM-1 over signal without TEM-1) (TEM-1 [2]): 41.3 fold
- bioluminescence triggered by β-lactamases TEM-1, KPC-3, BlaC, AmpC, OXA-48 ([3]; each enzyme 2 hours at room temperature, IVIS imaging): significant bioluminescence
- oxidation of probe incubated with firefly luciferase (mass spectrometry) (firefly luciferase): oxidized
- bioluminescence emission on additional batches of firefly luciferase (firefly luciferase): still bioluminescence emission
